# “Also recorded” adds a separate entry of the source.
# Tests used:
# [1] = Nicotine and benzoic acid octanol-water partitioning in unbuffered water; format: physicochemical
# Description: The mobile phase was brought to pH 2.5 with H3PO4. The flow rate of the mobile phase was 1 mL/min, and the injection volume was 10 μL.
# [2] = Nicotine octanol-water partitioning with various ion pairing agents and quantities (benzoate, octanoate, decanoate); format: physicochemical; settings: pH 6.5, 1,000 ppm nicotine
# Description: A pH probe was submerged in the resulting liquid and HCl (0.05 M) was added under stirring to bring the solution to pH 6.5. The flask weight was then brought up to 100 grams with RO water. […] Partitioning was performed by removing aliquots (10 mL) of each solution and placing into separate 20 ml scintillation vials. Octanol (10 ml) was added to each vial. The vials were then placed on a wrist action shaker for 20 minutes. Following agitation, the vials were allowed to separate for 30 min, and an aliquot (100 μl) of each octanol layer was removed and diluted with 900 μl octanol in 2 mL GC/MS vials.
structure (smiles),measurement,setting,value
O=C(O)c1ccccc1 [benzoic acid],concentration in octanol,"[1]; 1000 ppm nicotine, 1 molar equivalent sodium benzoate, unbuffered water",19.2 ppm
same,benzoic acid molarity in octanol in terms of nicotine mass,[1]; calculated as ppm nicotine,25.5 ppm
CCCCCCCCCC(=O)O [decanoic acid],"octanol-water partitioning, in words",[2],prone to becoming soapy during the vigorous mixing; also recorded: partition into octanol to an extent less than that expected by theory
"CN1CCCC1c1cccnc1 (centres unmarked) [nicotine, reference compound]",% nicotine in octanol (FIG. 6),[2]; 10 eq. octanoic acid,~ 75%
same,% nicotine in octanol (FIG. 6),[2]; benzoic acid at same concentration (10 eq.),~ 52%
